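Method: 48-hour compound exposure of cells in 96-well plates, five concentrations, linear interpolation of endpoints. GI50: concentration for 50% inhibition of growth. TGI: total growth inhibition.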
How the values were obtained:
Assay in all cases: NCI anticancer screen, dose series, 48 h
A498 renal = test system: A498 renal
A549 NSCLC = test system: A549 NSCLC
ACHN renal = test system: ACHN renal
CCRF-CEM leukemia = test system: CCRF-CEM leukemia
EKVX NSCLC = test system: EKVX NSCLC
HCT-116 colon = test system: HCT-116 colon
HCT-15 colon = test system: HCT-15 colon
HOP-62 NSCLC = test system: HOP-62 NSCLC
HOP-92 NSCLC = test system: HOP-92 NSCLC
HT29 colon = test system: HT29 colon
IGROV1 ovarian = test system: IGROV1 ovarian
K-562 leukemia = test system: K-562 leukemia
KM12 colon = test system: KM12 colon
LOX IMVI melanoma = test system: LOX IMVI melanoma
M14 melanoma = test system: M14 melanoma
MCF7 breast = test system: MCF7 breast
MDA-MB-231 breast = test system: MDA-MB-231 breast
MOLT-4 leukemia = test system: MOLT-4 leukemia
NCI-H226 lung = test system: NCI-H226 lung
NCI-H23 lung = test system: NCI-H23 lung
OVCAR-3 ovarian = test system: OVCAR-3 ovarian
OVCAR-8 ovarian = test system: OVCAR-8 ovarian
RPMI-8226 leukemia = test system: RPMI-8226 leukemia
SF-268 CNS = test system: SF-268 CNS
SF-539 CNS = test system: SF-539 CNS
SK-MEL-2 melanoma = test system: SK-MEL-2 melanoma
SK-MEL-28 melanoma = test system: SK-MEL-28 melanoma
SK-OV-3 ovarian = test system: SK-OV-3 ovarian
SNB-75 CNS = test system: SNB-75 CNS
SR leukemia = test system: SR leukemia
TK-10 renal = test system: TK-10 renal
UACC-62 melanoma = test system: UACC-62 melanoma
786-0 renal = test system: 786-0 renal
BT-549 breast = test system: BT-549 breast
COLO 205 colon = test system: COLO 205 colon
DU-145 prostate = test system: DU-145 prostate
HCC-2998 colon = test system: HCC-2998 colon
HL-60(TB) leukemia = test system: HL-60(TB) leukemia
HS 578T breast = test system: HS 578T breast
MDA-MB-435 = test system: MDA-MB-435
NCI-H460 lung = test system: NCI-H460 lung
NCI-H522 lung = test system: NCI-H522 lung
NCI/ADR-RES ovarian = test system: NCI/ADR-RES ovarian
OVCAR-4 ovarian = test system: OVCAR-4 ovarian
OVCAR-5 ovarian = test system: OVCAR-5 ovarian
PC-3 prostate = test system: PC-3 prostate
RXF 393 renal = test system: RXF 393 renal
SF-295 CNS = test system: SF-295 CNS
SK-MEL-5 melanoma = test system: SK-MEL-5 melanoma
SN12C renal = test system: SN12C renal
SNB-19 CNS = test system: SNB-19 CNS
SW-620 colon = test system: SW-620 colon
U251 CNS = test system: U251 CNS
UACC-257 melanoma = test system: UACC-257 melanoma
UO-31 renal = test system: UO-31 renal

N#C/C(=C\c1ccc(Br)cc1)n1nnc2cc(Cl)c(Cl)cc21
GI50 (A498 renal): 1780 nM | TGI (A498 renal): 4510 nM | GI50 (A549 NSCLC): 3100 nM | TGI (A549 NSCLC): > 100000 nM | GI50 (ACHN renal): 1730 nM | TGI (ACHN renal): 3240 nM | GI50 (CCRF-CEM leukemia): 1710 nM | TGI (CCRF-CEM leukemia): > 100000 nM | GI50 (EKVX NSCLC): 2830 nM | TGI (EKVX NSCLC): > 100000 nM | GI50 (HCT-116 colon): 1430 nM | TGI (HCT-116 colon): 3080 nM | GI50 (HCT-15 colon): 1670 nM | TGI (HCT-15 colon): 5170 nM | GI50 (HOP-62 NSCLC): 3260 nM | TGI (HOP-62 NSCLC): > 100000 nM | GI50 (HOP-92 NSCLC): 1140 nM | TGI (HOP-92 NSCLC): 3790 nM | GI50 (HT29 colon): 2180 nM | TGI (HT29 colon): 5180 nM | GI50 (IGROV1 ovarian): 2000 nM | TGI (IGROV1 ovarian): 4530 nM | GI50 (K-562 leukemia): 2310 nM | TGI (K-562 leukemia): > 100000 nM | GI50 (KM12 colon): 2920 nM | TGI (KM12 colon): > 100000 nM | GI50 (LOX IMVI melanoma): 1710 nM | TGI (LOX IMVI melanoma): 3300 nM | GI50 (M14 melanoma): 1920 nM | TGI (M14 melanoma): 5030 nM | GI50 (MCF7 breast): 1510 nM | TGI (MCF7 breast): > 100000 nM | GI50 (MDA-MB-231 breast): 2310 nM | TGI (MDA-MB-231 breast): 8000 nM | GI50 (MOLT-4 leukemia): 2510 nM | TGI (MOLT-4 leukemia): > 100000 nM | GI50 (NCI-H226 lung): 3590 nM | TGI (NCI-H226 lung): > 100000 nM | GI50 (NCI-H23 lung): 2890 nM | TGI (NCI-H23 lung): > 100000 nM | GI50 (OVCAR-3 ovarian): 2100 nM | TGI (OVCAR-3 ovarian): 5290 nM | GI50 (OVCAR-8 ovarian): 2170 nM | TGI (OVCAR-8 ovarian): > 100000 nM | GI50 (RPMI-8226 leukemia): 1420 nM | TGI (RPMI-8226 leukemia): 4380 nM | GI50 (SF-268 CNS): 3840 nM | TGI (SF-268 CNS): > 100000 nM | GI50 (SF-539 CNS): 2200 nM | TGI (SF-539 CNS): 4860 nM | GI50 (SK-MEL-2 melanoma): 2080 nM | TGI (SK-MEL-2 melanoma): 4860 nM | GI50 (SK-MEL-28 melanoma): 1840 nM | TGI (SK-MEL-28 melanoma): 3810 nM | GI50 (SK-OV-3 ovarian): 4330 nM | TGI (SK-OV-3 ovarian): > 100000 nM | GI50 (SNB-75 CNS): 1730 nM | TGI (SNB-75 CNS): 8260 nM | GI50 (SR leukemia): 1360 nM | TGI (SR leukemia): > 100000 nM | GI50 (TK-10 renal): 3320 nM | TGI (TK-10 renal): 6710 nM | GI50 (UACC-62 melanoma): 1680 nM | TGI (UACC-62 melanoma): 3630 nM

CC(=O)O[C@H](C[C@H](C(C)C)N(C)C(=O)[C@@H](NC(=O)[C@H]1CCCN1C)C(C)C)c1nc(C(=O)N[C@@H](Cc2ccccc2)C[C@H](C)C(=O)O)c(C)s1
GI50 (786-0 renal): 4.41 nM | TGI (786-0 renal): > 16700 nM | GI50 (A498 renal): < 1.67 nM | TGI (A498 renal): 9.56 nM | GI50 (A549 NSCLC): 15.5 nM | TGI (A549 NSCLC): > 16700 nM | GI50 (BT-549 breast): < 1.67 nM | TGI (BT-549 breast): 151 nM | GI50 (CCRF-CEM leukemia): < 1.67 nM | TGI (CCRF-CEM leukemia): > 16700 nM | GI50 (COLO 205 colon): 1.97 nM | TGI (COLO 205 colon): 25.5 nM | GI50 (DU-145 prostate): 2.24 nM | TGI (DU-145 prostate): > 16700 nM | GI50 (EKVX NSCLC): 4.4 nM | TGI (EKVX NSCLC): > 16700 nM | GI50 (HCC-2998 colon): 2.52 nM | TGI (HCC-2998 colon): > 16700 nM | GI50 (HCT-116 colon): < 1.67 nM | TGI (HCT-116 colon): > 16700 nM | GI50 (HCT-15 colon): 7.72 nM | TGI (HCT-15 colon): > 16700 nM | GI50 (HL-60(TB) leukemia): < 1.67 nM | TGI (HL-60(TB) leukemia): < 1.67 nM | GI50 (HOP-62 NSCLC): < 1.67 nM | TGI (HOP-62 NSCLC): > 16700 nM | GI50 (HOP-92 NSCLC): 12400 nM | TGI (HOP-92 NSCLC): > 16700 nM | GI50 (HS 578T breast): < 1.67 nM | TGI (HS 578T breast): > 16700 nM | GI50 (HT29 colon): < 1.67 nM | TGI (HT29 colon): > 16700 nM | GI50 (IGROV1 ovarian): 2.41 nM | TGI (IGROV1 ovarian): > 16700 nM | GI50 (K-562 leukemia): < 1.67 nM | TGI (K-562 leukemia): > 16700 nM | GI50 (KM12 colon): < 1.67 nM | TGI (KM12 colon): > 16700 nM | GI50 (LOX IMVI melanoma): < 1.67 nM | TGI (LOX IMVI melanoma): > 16700 nM | GI50 (M14 melanoma): < 1.67 nM | TGI (M14 melanoma): > 16700 nM | GI50 (MCF7 breast): < 1.67 nM | TGI (MCF7 breast): > 16700 nM | GI50 (MDA-MB-231 breast): 2.92 nM | TGI (MDA-MB-231 breast): > 16700 nM | GI50 (MDA-MB-435): < 1.67 nM | TGI (MDA-MB-435): < 1.67 nM | GI50 (MOLT-4 leukemia): < 1.67 nM | TGI (MOLT-4 leukemia): > 16700 nM | GI50 (NCI-H23 lung): 5.31 nM | TGI (NCI-H23 lung): > 16700 nM | GI50 (NCI-H460 lung): < 1.67 nM | TGI (NCI-H460 lung): > 16700 nM | GI50 (NCI-H522 lung): < 1.67 nM | TGI (NCI-H522 lung): < 1.67 nM | GI50 (NCI/ADR-RES ovarian): 102 nM | TGI (NCI/ADR-RES ovarian): > 16700 nM | GI50 (OVCAR-4 ovarian): 77.3 nM | TGI (OVCAR-4 ovarian): > 16700 nM | GI50 (OVCAR-5 ovarian): 7.16 nM | TGI (OVCAR-5 ovarian): > 16700 nM | GI50 (OVCAR-8 ovarian): 3.3 nM | TGI (OVCAR-8 ovarian): > 16700 nM | GI50 (PC-3 prostate): < 1.67 nM | TGI (PC-3 prostate): > 16700 nM | GI50 (RPMI-8226 leukemia): < 1.67 nM | TGI (RPMI-8226 leukemia): > 16700 nM | GI50 (RXF 393 renal): < 1.67 nM | TGI (RXF 393 renal): > 16700 nM | GI50 (SF-268 CNS): < 1.67 nM | TGI (SF-268 CNS): > 16700 nM | GI50 (SF-295 CNS): < 1.67 nM | TGI (SF-295 CNS): > 16700 nM | GI50 (SF-539 CNS): < 1.67 nM | TGI (SF-539 CNS): 25.6 nM | GI50 (SK-MEL-2 melanoma): < 1.67 nM | TGI (SK-MEL-2 melanoma): > 16700 nM | GI50 (SK-MEL-28 melanoma): 5.57 nM | TGI (SK-MEL-28 melanoma): > 16700 nM | GI50 (SK-MEL-5 melanoma): < 1.67 nM | TGI (SK-MEL-5 melanoma): 24.3 nM | GI50 (SK-OV-3 ovarian): 2.03 nM | TGI (SK-OV-3 ovarian): > 16700 nM | GI50 (SN12C renal): < 1.67 nM | TGI (SN12C renal): > 16700 nM | GI50 (SNB-19 CNS): < 1.67 nM | TGI (SNB-19 CNS): > 16700 nM | GI50 (SNB-75 CNS): < 1.67 nM | TGI (SNB-75 CNS): > 16700 nM | GI50 (SR leukemia): < 1.67 nM | TGI (SR leukemia): > 16700 nM | GI50 (SW-620 colon): < 1.67 nM | TGI (SW-620 colon): > 16700 nM | GI50 (TK-10 renal): > 16700 nM | TGI (TK-10 renal): > 16700 nM | GI50 (U251 CNS): < 1.67 nM | TGI (U251 CNS): > 16700 nM | GI50 (UACC-257 melanoma): > 16700 nM | TGI (UACC-257 melanoma): > 16700 nM | GI50 (UACC-62 melanoma): < 1.67 nM | TGI (UACC-62 melanoma): > 16700 nM | GI50 (UO-31 renal): 11 nM | TGI (UO-31 renal): > 16700 nM

— PubChem BioAssay (NCI)
